From US20070049564A1 (Wyeth, priority 2005, published 2007)
≈ marks a conversion by molar mass, not a printed value. Where two headings read alike, the source gives them in different places.

Assays:
E. coli GC 4559 = assay: MIC, broth microdilution; details: Escherichia coli
P. aeruginosa GC 2214 = assay: MIC, broth microdilution; details: Pseudomonas aeruginosa
E. coli GC 2231 = assay: MIC, broth microdilution; details: Escherichia coli
S. typhimurium GC 2172 = assay: MIC, broth microdilution; details: Salmonella enterica, TYPHIMURIUM
S. aureus GC 6467 = assay: MIC, broth microdilution; details: Staphylococcus aureus
S. agalactiae GC 4564 = assay: MIC, broth microdilution; details: Streptococcus agalactiae
Staph. aureus Smith = assay: In vivo activity (oral, iv; ED50) against Staph. aureus Smith in mice
E. faecalis GC 2242 = assay: MIC, broth microdilution; details: Enterococcus faecalis
S. aureus GC 6335 = assay: MIC, broth microdilution; details: Staphylococcus aureus
E. faecalis GC 2267 = assay: MIC, broth microdilution; details: Enterococcus faecalis
S. aureus GC 2216 = assay: MIC, broth microdilution; details: Staphylococcus aureus
E. coli GC 2232 = assay: MIC, broth microdilution; details: Escherichia coli
E. coli GC 2203 = assay: MIC, broth microdilution; details: Escherichia coli
S. pneumoniae* GC 4465 = assay: MIC, broth microdilution; details: Streptococcus pneumoniae
E. coli GC 2270 = assay: MIC, broth microdilution; details: Escherichia coli
E. coli GC 2271 = assay: MIC, broth microdilution; details: Escherichia coli
E. coli GC 3226 = assay: MIC, broth microdilution; details: Escherichia coli
E. coli GC 2235 = assay: MIC, broth microdilution; details: Escherichia coli
E. faecium GC 4556 = assay: MIC, broth microdilution; details: Enterococcus faecium
E. coli GC 4560 = assay: MIC, broth microdilution; details: Escherichia coli
[1] = read-out: MINIMAL INHIBITORY CONCENTRATION MIC, pre-incubated in Human Serum
[2] = read-out: MINIMAL INHIBITORY CONCENTRATION MIC, pre-incubated in Mouse Serum
[3] = read-out: MINIMAL INHIBITORY CONCENTRATION MIC, pre-incubated in Water

MIC (E. coli GC 4559; GC4559, read-out: MINIMAL INHIBITORY CONCENTRATION MIC, pre-incubated in Human Serum): 64 µg/mL (≈ 82.3 µM)
MIC (E. coli GC 4559; GC4559, read-out: MINIMAL INHIBITORY CONCENTRATION MIC, pre-incubated in Mouse Serum): 2 µg/mL (≈ 2.57 µM)
MIC (E. coli GC 4559; GC4559, read-out: MINIMAL INHIBITORY CONCENTRATION MIC, pre-incubated in Water): > 64 µg/mL
MIC (P. aeruginosa GC 2214; GC2214, read-out: MINIMAL INHIBITORY CONCENTRATION MIC, pre-incubated in Human Serum): > 64 µg/mL
MIC (P. aeruginosa GC 2214; GC2214, read-out: MINIMAL INHIBITORY CONCENTRATION MIC, pre-incubated in Mouse Serum): 32 µg/mL (≈ 41.1 µM)
MIC (P. aeruginosa GC 2214; GC2214, read-out: MINIMAL INHIBITORY CONCENTRATION MIC, pre-incubated in Water): > 64 µg/mL
MIC (E. coli GC 2231; GC2231, read-out: MINIMAL INHIBITORY CONCENTRATION MIC, pre-incubated in Human Serum): 32 µg/mL (≈ 41.1 µM)
MIC (E. coli GC 2231; GC2231, read-out: MINIMAL INHIBITORY CONCENTRATION MIC, pre-incubated in Mouse Serum): 1 µg/mL (≈ 1.29 µM)
MIC (E. coli GC 2231; GC2231, read-out: MINIMAL INHIBITORY CONCENTRATION MIC, pre-incubated in Water): > 64 µg/mL
MIC (S. typhimurium GC 2172; [1]): > 64 µg/mL
MIC (S. typhimurium GC 2172; [2]): 4 µg/mL (≈ 5.14 µM)
MIC (S. typhimurium GC 2172; [3]): > 64 µg/mL
MIC (S. aureus GC 6467; GC6467, read-out: MINIMAL INHIBITORY CONCENTRATION MIC, pre-incubated in Human Serum): 2 µg/mL (≈ 2.57 µM)
MIC (S. aureus GC 6467; GC6467, read-out: MINIMAL INHIBITORY CONCENTRATION MIC, pre-incubated in Mouse Serum): 1 µg/mL (≈ 1.29 µM)
MIC (S. aureus GC 6467; GC6467, read-out: MINIMAL INHIBITORY CONCENTRATION MIC, pre-incubated in Water): 4 µg/mL (≈ 5.14 µM)
MIC (S. agalactiae GC 4564; GC4564, read-out: MINIMAL INHIBITORY CONCENTRATION MIC, pre-incubated in Human Serum): 1 µg/mL (≈ 1.29 µM)
MIC (S. agalactiae GC 4564; GC4564, read-out: MINIMAL INHIBITORY CONCENTRATION MIC, pre-incubated in Mouse Serum): 0.5 µg/mL (≈ 0.643 µM)
MIC (S. agalactiae GC 4564; GC4564, read-out: MINIMAL INHIBITORY CONCENTRATION MIC, pre-incubated in Water): 1 µg/mL (≈ 1.29 µM)
MIC (E. faecalis GC 2242; GC2242, read-out: MINIMAL INHIBITORY CONCENTRATION MIC, pre-incubated in Human Serum): 4 µg/mL (≈ 5.14 µM)
MIC (E. faecalis GC 2242; GC2242, read-out: MINIMAL INHIBITORY CONCENTRATION MIC, pre-incubated in Mouse Serum): 1 µg/mL (≈ 1.29 µM)
MIC (E. faecalis GC 2242; GC2242, read-out: MINIMAL INHIBITORY CONCENTRATION MIC, pre-incubated in Water): 4 µg/mL (≈ 5.14 µM)
MIC (S. aureus GC 6335; GC6335, read-out: MINIMAL INHIBITORY CONCENTRATION MIC, pre-incubated in Human Serum): 2 µg/mL (≈ 2.57 µM)
MIC (S. aureus GC 6335; GC6335, read-out: MINIMAL INHIBITORY CONCENTRATION MIC, pre-incubated in Mouse Serum): 1 µg/mL (≈ 1.29 µM)
MIC (S. aureus GC 6335; GC6335, read-out: MINIMAL INHIBITORY CONCENTRATION MIC, pre-incubated in Water): 2 µg/mL (≈ 2.57 µM)
MIC (E. faecalis GC 2267; GC2267, read-out: MINIMAL INHIBITORY CONCENTRATION MIC, pre-incubated in Human Serum): 4 µg/mL (≈ 5.14 µM)
MIC (E. faecalis GC 2267; GC2267, read-out: MINIMAL INHIBITORY CONCENTRATION MIC, pre-incubated in Mouse Serum): 1 µg/mL (≈ 1.29 µM)
MIC (E. faecalis GC 2267; GC2267, read-out: MINIMAL INHIBITORY CONCENTRATION MIC, pre-incubated in Water): 4 µg/mL (≈ 5.14 µM)
MIC (S. aureus GC 2216; GC2216, read-out: MINIMAL INHIBITORY CONCENTRATION MIC, pre-incubated in Human Serum): 1 µg/mL (≈ 1.29 µM)
MIC (S. aureus GC 2216; GC2216, read-out: MINIMAL INHIBITORY CONCENTRATION MIC, pre-incubated in Mouse Serum): 1 µg/mL (≈ 1.29 µM)
MIC (S. aureus GC 2216; GC2216, read-out: MINIMAL INHIBITORY CONCENTRATION MIC, pre-incubated in Water): 2 µg/mL (≈ 2.57 µM)
MIC (E. coli GC 2232; GC2232, read-out: MINIMAL INHIBITORY CONCENTRATION MIC, pre-incubated in Human Serum): 16 µg/mL (≈ 20.6 µM)
MIC (E. coli GC 2232; GC2232, read-out: MINIMAL INHIBITORY CONCENTRATION MIC, pre-incubated in Mouse Serum): 1 µg/mL (≈ 1.29 µM)
MIC (E. coli GC 2232; GC2232, read-out: MINIMAL INHIBITORY CONCENTRATION MIC, pre-incubated in Water): > 64 µg/mL
MIC (E. coli GC 2203; GC2203, read-out: MINIMAL INHIBITORY CONCENTRATION MIC, pre-incubated in Human Serum): 32 µg/mL (≈ 41.1 µM)
MIC (E. coli GC 2203; GC2203, read-out: MINIMAL INHIBITORY CONCENTRATION MIC, pre-incubated in Mouse Serum): 1 µg/mL (≈ 1.29 µM)
MIC (E. coli GC 2203; GC2203, read-out: MINIMAL INHIBITORY CONCENTRATION MIC, pre-incubated in Water): > 64 µg/mL
MIC (S. pneumoniae* GC 4465; [1]): 0.5 µg/mL (≈ 0.643 µM)
MIC (S. pneumoniae* GC 4465; [2]): 0.25 µg/mL (≈ 0.321 µM)
MIC (S. pneumoniae* GC 4465; [3]): 0.5 µg/mL (≈ 0.643 µM)
MIC (E. coli GC 2270; GC2270, read-out: MINIMAL INHIBITORY CONCENTRATION MIC, pre-incubated in Human Serum): 16 µg/mL (≈ 20.6 µM)
MIC (E. coli GC 2270; GC2270, read-out: MINIMAL INHIBITORY CONCENTRATION MIC, pre-incubated in Mouse Serum): 0.5 µg/mL (≈ 0.643 µM)
MIC (E. coli GC 2270; GC2270, read-out: MINIMAL INHIBITORY CONCENTRATION MIC, pre-incubated in Water): > 64 µg/mL
MIC (E. coli GC 2271; GC2271, read-out: MINIMAL INHIBITORY CONCENTRATION MIC, pre-incubated in Human Serum): 16 µg/mL (≈ 20.6 µM)
MIC (E. coli GC 2271; GC2271, read-out: MINIMAL INHIBITORY CONCENTRATION MIC, pre-incubated in Mouse Serum): 1 µg/mL (≈ 1.29 µM)
MIC (E. coli GC 2271; GC2271, read-out: MINIMAL INHIBITORY CONCENTRATION MIC, pre-incubated in Water): > 64 µg/mL
MIC (E. coli GC 3226; GC3226, read-out: MINIMAL INHIBITORY CONCENTRATION MIC, pre-incubated in Human Serum): 32 µg/mL (≈ 41.1 µM)
MIC (E. coli GC 3226; GC3226, read-out: MINIMAL INHIBITORY CONCENTRATION MIC, pre-incubated in Mouse Serum): 2 µg/mL (≈ 2.57 µM)
MIC (E. coli GC 3226; GC3226, read-out: MINIMAL INHIBITORY CONCENTRATION MIC, pre-incubated in Water): > 64 µg/mL
MIC (E. coli GC 2235; GC2235, read-out: MINIMAL INHIBITORY CONCENTRATION MIC, pre-incubated in Human Serum): 16 µg/mL (≈ 20.6 µM)
MIC (E. coli GC 2235; GC2235, read-out: MINIMAL INHIBITORY CONCENTRATION MIC, pre-incubated in Mouse Serum): 1 µg/mL (≈ 1.29 µM)
MIC (E. coli GC 2235; GC2235, read-out: MINIMAL INHIBITORY CONCENTRATION MIC, pre-incubated in Water): > 64 µg/mL
MIC (E. faecium GC 4556; GC4556, read-out: MINIMAL INHIBITORY CONCENTRATION MIC, pre-incubated in Human Serum): 4 µg/mL (≈ 5.14 µM)
MIC (E. faecium GC 4556; GC4556, read-out: MINIMAL INHIBITORY CONCENTRATION MIC, pre-incubated in Mouse Serum): 1 µg/mL (≈ 1.29 µM)
MIC (E. faecium GC 4556; GC4556, read-out: MINIMAL INHIBITORY CONCENTRATION MIC, pre-incubated in Water): 4 µg/mL (≈ 5.14 µM)
MIC (E. coli GC 4560; GC4560, read-out: MINIMAL INHIBITORY CONCENTRATION MIC, pre-incubated in Human Serum): 4 µg/mL (≈ 5.14 µM)
MIC (E. coli GC 4560; GC4560, read-out: MINIMAL INHIBITORY CONCENTRATION MIC, pre-incubated in Mouse Serum): 1 µg/mL (≈ 1.29 µM)
MIC (E. coli GC 4560; GC4560, read-out: MINIMAL INHIBITORY CONCENTRATION MIC, pre-incubated in Water): 16 µg/mL (≈ 20.6 µM)
Compound: Cc1ccc(C(=O)OCOC(=O)N(CC(=O)Nc2cc(N(C)C)c3c(c2O)C(=O)C2=C(O)[C@]4(O)C(=O)C(C(N)=O)=C(O)[C@@H](N(C)C)[C@@H]4C[C@@H]2C3)C(C)(C)C)cc1 [Example 47]
ED50 (Staph. aureus Smith; Staphylococcus aureus, in Mus musculus, iv, read-out: ED50 SIV (Staph aureus Smith)): 1.2 mg/kg
ED50 (Staph. aureus Smith; Staphylococcus aureus, in Mus musculus, po, read-out: ED50 SOD (Staph aureus Smith)): 14 mg/kg
ED50 (Staph. aureus Smith; Staphylococcus aureus, in Mus musculus, po, read-out: ED50 Staph Smith SOD): 14 mg/kg
ED50 (Staph. aureus Smith; iv, read-out: ED50 Staph Smith SIV): 1.2 mg/kg
